From patent US11807644B2 (PMV Pharmaceuticals, Inc., priority 2020, dated 2023)

The compounds below were run against T1, recombinant His-tag Y220C p53 DBD protein (Homo sapiens, UniProt P04637, Y220C) (assay: In vitro DNA binding activity assay (TR-FRET): binding of His-tag Y220C p53 DBD to biotin-labeled consensus DNA). Conditions: SC150 = concentration to increase DNA binding by […], His-tag Y220C p53 DBD, biotin-labeled consensus DNA.
T1 construct: recombinant His-tag Y220C p53 DBD protein (amino acids #˜94-312)
Assay type: biochemical

| Compound | Y220C SC150 (μM) |
| --- | --- |
| CC(C)(C)n1ccc(C(=O)NCc2nc(-c3cc4c(N[C@H]5CC[C@@H](F)CC5)cccc4n3CC(F)(F)F)no2)c1 [Compound 343B, 1-tert-butyl-N-{[3-(4-{[(1s,4s)-4-fluorocyclohexyl]amino}-1-(2,2,2-trifluoroethyl)-1H-indol-2-yl)-1,2,4-oxadiazol-5-yl]methyl}-1H-pyrrole-3-carboxamide] | * (* = 0 μM ≤ SC150 < 0.1 μM) |
| CN1CC[C@@H](Nc2cccc3c2cc(-c2noc(CNC(=O)c4ccc(C(C)(C)C)[nH]4)n2)n3CC(F)(F)F)[C@@H](F)C1 [Compound 524B, 5-tert-butyl-N-{[3-(4-{[(3S,4R)-3-fluoro-1-methylpiperidin-4-yl]amino}-1-(2,2,2-trifluoroethyl)-1H-indol-2-yl)-1,2,4-oxadiazol-5-yl]methyl}-1H-pyrrole-2-carboxamide] | * (* = 0 μM ≤ SC150 < 0.1 μM) |
| Cn1ccc(C(=O)NCc2nc(-c3cc4c(N[C@@H]5CCN(C(C)(C)C)C[C@@H]5F)cccc4n3CC(F)(F)F)no2)c1 [Compound 397B, N-{[3-(4-{[(3S,4R)-1-tert-butyl-3-fluoropiperidin-4-yl]amino}-1-(2,2,2-trifluoroethyl)-1H-indol-2-yl)-1,2,4-oxadiazol-5-yl]methyl}-1-methyl-1H-pyrrole-3-carboxamide] | * (* = 0 μM ≤ SC150 < 0.1 μM) |
| CN1CC[C@@H](Nc2cccc3c2cc(-c2noc(CN(C)c4cn[nH]c4)n2)n3CC(F)(F)F)[C@@H](F)C1 (racemic) [Compound 192B, (+/−)-N-[(3R,4S)-3-fluoro-1-methylpiperidin-4-yl]-2-(5-{[methyl(1H-pyrazol-4-yl)amino]methyl}-1,2,4-oxadiazol-3-yl)-1-(2,2,2-trifluoroethyl)-1H-indol-4-amine] | * (* = 0 μM ≤ SC150 < 0.1 μM) |
| COCC(C)(C)n1ccc(C(=O)NCc2nc(-c3cc4c(N[C@H]5CN(C)CC[C@H]5F)cccc4n3CC(F)(F)F)no2)c1 [Compound 418B, N-{[3-(4-{[(3S,4R)-4-fluoro-1-methylpiperidin-3-yl]amino}-1-(2,2,2-trifluoroethyl)-1H-indol-2-yl)-1,2,4-oxadiazol-5-yl]methyl}-1-(1-methoxy-2-methylpropan-2-yl)-1H-pyrrole-3-carboxamide] | * (* = 0 μM ≤ SC150 < 0.1 μM) |
| CN1CCC(Nc2cccc3c2cc(-c2noc(CNC(=O)c4cnn(C)c4)n2)n3CC(F)(F)F)CC1 [Compound 154B, 1-methyl-N-[(3-{4-[(1-methylpiperidin-4-yl)amino]-1-(2,2,2-trifluoroethyl)-1H-indol-2-yl}-1,2,4-oxadiazol-5-yl)methyl]-1H-pyrazole-4-carboxamide] | * (* = 0 μM ≤ SC150 < 0.1 μM) |
| CN1CC[C@@H](Nc2cccc3c2cc(-c2noc(CNC(=O)c4cnn(-c5ccccc5)c4)n2)n3CC(F)(F)F)[C@@H](F)C1 [Compound 308B, N-{[3-(4-{1[(3S,4R)-3-fluoro-1-methylpiperidin-4-yl]amino}-1-(2,2,2-trifluoroethyl)-1H-indol-2-yl)-1,2,4-oxadiazol-5-yl]methyl}-1-phenyl-1H-pyrazole-4-carboxamide] | * (* = 0 μM ≤ SC150 < 0.1 μM) |
| Cc1sccc1C(=O)NCc1nc(-c2cc3c(N[C@@H]4CCN(C)C[C@@H]4F)cccc3n2CC(F)(F)F)no1 [Compound 211B, N-{[3-(4-{[(3S,4R)-3-fluoro-1-methylpiperidin-4-yl]amino}-1-(2,2,2-trifluoroethyl)-1H-indol-2-yl)-1,2,4-oxadiazol-5-yl]methyl}-2-methylthiophene-3-carboxamide] | * (* = 0 μM ≤ SC150 < 0.1 μM) |
| CN1CC[C@@H](Nc2cccc3c2cc(-c2noc(CNC(=O)c4cnc(N5CCCC5)s4)n2)n3CC(F)(F)F)[C@@H](F)C1 [Compound 459B, N-{[3-(4-{[(3S,4R)-3-fluoro-1-methylpiperidin-4-yl]amino}-1-(2,2,2-trifluoroethyl)-1H-indol-2-yl)-1,2,4-oxadiazol-5-yl]methyl}-2-(pyrrolidin-1-yl)-1,3-thiazole-5-carboxamide] | * (* = 0 μM ≤ SC150 < 0.1 μM) |
| CN1CC[C@@H](Nc2cccc3c2cc(-c2noc(CNC(=O)c4cncn4CCF)n2)n3CC(F)(F)F)[C@@H](F)C1 [Compound 556B, N-{[3-(4-{[(3S,4R)-3-fluoro-1-methylpiperidin-4-yl]amino}-1-(2,2,2-trifluoroethyl)-1H-indol-2-yl)-1,2,4-oxadiazol-5-yl]methyl}-1-(2-fluoroethyl)-1H-imidazole-5-carboxamide] | * (* = 0 μM ≤ SC150 < 0.1 μM) |
| CN1CC[C@@H](Nc2cccc3c2cc(-c2nc(CNC(=O)c4ccccc4)cs2)n3CC(F)(F)F)[C@@H](F)C1 (racemic) [Compound 90B, N-{[2-(4-{[(3S,4R)-3-fluoro-1-methylpiperidin-4-yl]amino}-1-(2,2,2-trifluoroethyl)-1H-indol-2-yl)-1,3-thiazol-4-yl]methyl}benzamide] | **** (**** = 1 μM ≤ SC150 < 10 μM) |
| CO[C@@H]1CCN(c2nc(C(=O)NCc3nc(-c4cc5c(N[C@@H]6CCN(C)C[C@@H]6F)cccc5n4CC(F)(F)F)no3)cs2)C1 [Compound 522B, N-{[3-(4-{[(3S,4R)-3-fluoro-1-methylpiperidin-4-yl]amino}-1-(2,2,2-trifluoroethyl)-1H-indol-2-yl)-1,2,4-oxadiazol-5-yl]methyl}-2-[(3R)-3-methoxypyrrolidin-1-yl]-1,3-thiazole-4-carboxamide] | * (* = 0 μM ≤ SC150 < 0.1 μM) |
| CCn1ccc(C(=O)NCc2nc(-c3cc4c(N[C@@H]5CCN(C)C[C@@H]5F)cccc4n3CC(F)(F)F)no2)c1 (racemic) [Compound 179B, (+/−)-1-ethyl-N-{[3-(4-{[(3R,4S)-3-fluoro-1-methylpiperidin-4-yl]amino}-1-(2,2,2-trifluoroethyl)-1H-indol-2-yl)-1,2,4-oxadiazol-5-yl]methyl}-1H-pyrrole-3-carboxamide] | * (* = 0 μM ≤ SC150 < 0.1 μM) |
| CN1CCC(n2cc(C(=O)NCc3nc(-c4cc5c(N[C@@H]6CCN(C)C[C@@H]6F)cccc5n4CC(F)(F)F)no3)cn2)CC1 [Compound 350B, N-{[3-(4-{1[(3S,4R)-3-fluoro-1-methylpiperidin-4-yl]amino}-1-(2,2,2-trifluoroethyl)-1H-indol-2-yl)-1,2,4-oxadiazol-5-yl]methyl}-1-(1-methylpiperidin-4-yl)-1H-pyrazole-4-carboxamide] | * (* = 0 μM ≤ SC150 < 0.1 μM) |
| CN1CC[C@@H](Nc2cccc3c2cc(-c2noc(CNC(=O)c4ccsc4)n2)n3CC(F)(F)F)[C@@H](F)C1 (racemic) [Compound 176B, (+/−)-N-{[3-(4-{[(3R,4S)-3-fluoro-1-methylpiperidin-4-yl]amino}-1-(2,2,2-trifluoroethyl)-1H-indol-2-yl)-1,2,4-oxadiazol-5-yl]methyl}thiophene-3-carboxamide] | * (* = 0 μM ≤ SC150 < 0.1 μM) |
| COC(C)(C)Cn1ccc(C(=O)NCc2nc(-c3cc4c(N[C@@H]5CCN(C)C[C@@H]5F)cccc4n3CC(F)(F)F)no2)c1 [Compound 251B, N-{[3-(4-{[(3S,4R)-3-fluoro-1-methylpiperidin-4-yl]amino}-1-(2,2,2-trifluoroethyl)-1H-indol-2-yl)-1,2,4-oxadiazol-5-yl]methyl}-1-(2-methoxy-2-methylpropyl)-1H-pyrrole-3-carboxamide] | * (* = 0 μM ≤ SC150 < 0.1 μM) |
